Patent US11278514B2, “Composition compromising dunnione as effective ingredient for prevention or alleviation of hair loss” (NADIANBIO LTD., priority 2018, dated 2022)
Entries after “also recorded” stand apart in the source; their conditions may differ. Read-outs that look alike come from different tables or passages of the source.

What was measured:
[1] = tested on: p53; test: Acetylation of p53 in skin tissue (western blot), cyclophosphamide alopecia model; format: in vivo, mice; settings: cyclophosphamide plus dunnione; day 18
Description: In the cyclophosphamide-induced alopecia mouse model of Example 2, expression level of Sirt1 protein and acetylation reaction of the target proteins thereof, NF-κB p65 and p53, were identified on the skin tissue obtained on day 18 after hair removal.
Specifically, 10 mg of the skin tissue obtained from the animal model prepared by the method in Example 2 was homogenized by addition of a lysis solution (RIPA lysis buffer). Then, centrifugation was performed at 14,000 rpm for 10 minutes. The protein concentration in the supernatant was quantified with a bovine serum albumin (BSA) standard solution. The skin tissue protein was used in an amount of 40 μg per test solution. First, the homogenized skin tissue was mixed with a sample solution (Bio-Rad, 161-0747) and inactivated at a temperature of 95° C. for 5 minutes. Thereafter, the protein was separated by a sodium dodecyl sulfate-polyacrylamide gel electrophoresis (SDS-PAGE) method, and then transferred to a nitrocellulose membrane. Treatment with anti-Sirt1 antibody (Abcam), anti-acetyl NF-κB p65 antibody and anti-acetyl p53 antibody (Cell Signaling Technologies), and anti-β-actin antibody (Santa Cruz Biotechnology) as primary antibodies were performed, and reaction was allowed to proceed. […]

[2] = tested on: C57BL/6 mice having alopecia caused by cyclophosphamide
Description: The day, on which the mice were hair-removed in Example 1, was set as day 0, and the animals were divided into the following groups: normal group (Control, 4 animals) in which only PBS is intraperitoneally injected on day 9; cyclophosphamide group (CYP, 6 animals) in which cyclophosphamide (150 mg/kg) is intraperitoneally injected on day 9; combination-treated group (CYP+Dunnione, 6 animals) in which dunnione is orally administered on a daily basis starting from 3 days prior to treatment with cyclophosphamide; and dunnione alone-treated group (Dunnione, 4 animals) in which only dunnione (20 mg/kg) is administered (FIG. 1).
The day, on which the mice were hair-removed in Example 1, was set as day 0, and the mice in each of the experimental groups described in Example 2 were sacrificed on day 18. Subsequently, the mouse dorsal skin was dissected parallel or perpendicular to the vertebral line, and removed. The removed skin was fixed with a Bouin's solution for 12 hours, subjected to dehydration, and embedded in paraffin. Then, the resulting product was prepared into 5-μm sections. The prepared sections were subjected to hematoxylin and eosin (H&E) staining, and histological changes in the skin in each experimental group were observed.

[3] = tested on: NQO1 knockout mice
Description: The day, on which the NQO1 knockout mice were hair-removed according to Example 1, was set as day 0, and the animals were divided into the following experimental groups and used for experiments: normal group (Control, 4 animals) in which only PBS is intraperitoneally injected on day 9; cyclophosphamide group (CYP, 6 animals) in which cyclophosphamide (150 mg/kg) is intraperitoneally injected on day 9; combination-treated group (CYP+Dunnione, 6 animals) in which dunnione is orally administered on a daily basis starting from 3 days prior to treatment with cyclophosphamide; and dunnione alone-treated group (Dunnione, 4 animals) in which only dunnione (20 mg/kg) is administered (FIG. 1).

[4] = tested on: intracellular NAD^+; settings: reported to date (Pandit et al. 2015; Shen et al. 2017); cited from earlier work
[5] = tested on: NQO1 knockout mice; test: Visual observation of skin in NQO1 knockout mice treated with 6×TAC; format: in vivo
Description: In order to identify whether a hair loss inhibitory effect of dunnione in an animal model having combined chemotherapy-induced alopecia is dependent on the enzyme NQO1, the same experiments as described in Examples 1 and 2 were repeatedly performed using NQO1 knockout mice in place of the C57BL/6 mice.

[6] = target: NAD(P)H: quinone oxidoreductase 1 (NQO1) (Homo sapiens, UniProt P15559); settings: reported to date (Pandit et al. 2015; Shen et al. 2017); cited from earlier work
[7] = tested on: Sirt1; test: Sirt1 activity in skin tissue (fluorescent Sirt1 detection kit), cyclophosphamide alopecia model; format: in vivo, mice; settings: cyclophosphamide plus dunnione combination-treated group; day 18
Description: In addition, the skin tissue obtained from the animal model prepared by the method in Example 2 was homogenized. The homogenized skin tissue was tested with the fluorescent Sirt1 detection kit (BML-AK555-0001) of Enzo Life Sciences International, Inc. according to the instruction manual, and then Sirt1 activity was analyzed. 40 μg of the homogenized skin tissue was mixed with a reaction solution (Fluor de Lys-Sirt1, NAD+, buffer solution (25 mM Tris-HCl (pH8.0), 137 mM NaCl, 2.7 mM […], 1 mM MgCl2, and 1 mg/mL BSA)), and reaction was allowed to proceed at a temperature of 37° C. for 1 hour. Then, additional reaction was allowed to proceed for 5 minutes under a condition in which a developer is added. In order to check the final Sirt1 activity, readings were measured for the reaction solution using the CytoFluor series 4000 fluorometer (PerSeptive Biosystems, Inc., USA) with the excitation wavelength set to 360 nm and the emission to 460 nm.

[8] = dunnione alone (20 mg/kg), day 18

NAD(P)H: quinone oxidoreductase 1 (NQO1), sequence (P15559 whole entry, species assumed): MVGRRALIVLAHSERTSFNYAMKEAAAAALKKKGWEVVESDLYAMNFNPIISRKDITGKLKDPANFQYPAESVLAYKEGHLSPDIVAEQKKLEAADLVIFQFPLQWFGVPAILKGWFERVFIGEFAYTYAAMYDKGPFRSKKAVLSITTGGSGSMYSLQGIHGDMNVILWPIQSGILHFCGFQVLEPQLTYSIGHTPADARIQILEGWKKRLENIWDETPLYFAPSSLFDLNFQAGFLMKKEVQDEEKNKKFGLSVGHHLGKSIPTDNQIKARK

With `CC1OC2=C(C(=O)C(=O)c3ccccc32)C1(C)C` (stereo not drawn) [dunnione, 2,3-dihydro-2,3,3-trimethyl-naphtho[1,2-b]furan-4,5-dione] as the compound, how does the “acetylation of p53 in skin tissue” value [1] read?
The value was “suppresses”.

And the “development of hair follicles and inner root sheaths (histology)” value ([2]; CYP+Dun combination-treated group, day 18 after hair removal)?
The value was “suppressed falling-off of hair follicles and inner root sheaths; also recorded: the hair follicles and the inner root sheaths have well developed overall”.

What about the “number of growing hairs (histology)” value ([2]; CYP+Dun compared with cyclophosphamide alone-treated group, day 18) of the same compound?
The value was “increased number of hairs”.

What about the “hair growth, visual observation of skin” value ([3]; CYP+Dun combination-treated group, until day 18) of the same compound?
The value was “hair hardly grew until day 18 after hair removal; also recorded: progression of hair loss to a level similar to the cyclophosphamide alone-treated group”.

What about the “start of hair growth, visual observation of skin” value ([3]; dunnione alone (20 mg/kg)) of the same compound?
Its value is “hair began to grow starting from day 12 after hair removal”.

And the “hair growth, visual observation of skin” value [3, 8]?
The value was “hair grew overall on day 18 so that the skin is full of hair and looks black”.

What about the “intracellular NAD^+” value [4] of the same compound?
Its value is “increase”.

What about the “hair growth, visual observation of skin” value ([5]; 6×TAC+Dunnione combination-treated group, until day 18) of the same compound?
The value was “hair hardly grows until day 18 after hair removal; also recorded: progression of hair loss to a level similar to the TAC alone-treated group”.

What about the “start of hair growth, visual observation of skin” value ([5]; dunnione alone (20 mg/kg)) of the same compound?
Its value is “hair began to grow starting from day 12 after hair removal”.

What about the “hair growth, visual observation of skin” value [5, 8] of the same compound?
The value was “hair grew overall on day 18 so that the skin is full of hair and looks black”.

And the “activity of the enzyme NQO1” value [6]?
The value was “increases”.

And the “Sirt1 activity in skin tissue” value [7]?
The value was “maintained at a level similar to the normal group”.
